In brackets after ≈: the same amount, converted by molar mass.
Experiments:
Format in all cases: cell-based
[1] = tested on: organisms resistant to the parent compound; test: activity against organisms resistant to the 1-N-unsubstituted parent compounds; conditions: organisms resistant to the 1-N-unsubstituted precursors
From the text: (§1) Particularly useful compounds of our invention are those wherein X is a lower alkyl having up to 8 carbon atoms, particularly those having up to 4 carbon atoms, e.g. compounds of formulae I, II, III, IV, and V wherein X is methyl, ethyl, n-propyl or n-butyl.

[2] = tested on: gram positive bacteria and gram negative bacteria; test: antibacterial activity (standard dilution tests); conditions: versus parent antibiotic
From the text: as §1

Escherichia coli = test: in vitro minimal inhibitory concentration, standard tube dilution method in Mueller-Hinton broth
From the text: In Table 1, set forth below is shown the in vitro minimal inhibitory concentration (MIC) of gentamicin C2a against representative gram-positive gram-negative bacteria. The results are derived using the standard tube dilution method in Mueller-Hinton broth.
In Table 2, set forth below is shown the in vitro minimal inhibitory concentration (MIC) of gentamicin C2b against representative gram-positive and gram-negative bacteria. The results are derived using the standard tube dilution method in Mueller-Hinton broth.

bacteria = test: antibacterial activity and spectrum compared with the gentamicins

SMILES | activity against resistant organisms [1] | other results
CCCN[C@@H]1C[C@H](N)[C@@H](O[C@H]2OC(CN)=CC[C@H]2N)[C@H](O)[C@H]1O[C@H]1OC[C@](C)(O)[C@H](NC)[C@H]1O [1-N-(n-propyl) sisomicin, 1-N-(n-propyl)sisomicin] | exhibit activity against gram negative organisms which are resistant to their 1-N-unsubstituted precursors | –
CCCN[C@@H]1C[C@H](N)[C@@H](O[C@H]2OC(C(C)N)=CC[C@H]2N)[C@H](O)[C@H]1O[C@H]1OC[C@](C)(O)[C@H](NC)[C@H]1O (stereo partly shown) [1-N-(n-propyl) verdamicin, 1-N-(n-propyl)verdamicin] | exhibit activity against gram negative organisms which are resistant to their 1-N-unsubstituted precursors | –
CN[C@@H]1[C@@H](O)[C@@H](O[C@@H]2[C@@H](O)[C@H](O[C@H]3OC(CN)=CC[C@H]3N)[C@@H](N)C[C@H]2NCCCCN)OC[C@]1(C)O [1-N-(δ-aminobutyl) sisomicin, 1-N-(δ-aminobutyl)sisomicin] | exhibit activity against gram negative organisms which are resistant to their 1-N-unsubstituted precursors | –
CN[C@@H]1[C@@H](O)[C@@H](O[C@@H]2[C@@H](O)[C@H](O[C@H]3OC(C(C)N)=CC[C@H]3N)[C@@H](N)C[C@H]2NCCCCN)OC[C@]1(C)O (stereo partly shown) [1-N-(δ-aminobutyl) verdamicin, 1-N-(δ-aminobutyl)veradamicin] | exhibit activity against gram negative organisms which are resistant to their 1-N-unsubstituted precursors | –
CCN[C@@H]1C[C@H](N)[C@@H](O[C@H]2OC(CN)=CC[C@H]2N)[C@H](O)[C@H]1O[C@H]1OC[C@](C)(O)[C@H](NC)[C@H]1O [1-N-ethylsisomicin] | exhibit activity against gram negative organisms which are resistant to their 1-N-unsubstituted precursors | antibacterial activity compared to the parent antibiotics [2]: enhanced antibacterial activity
CCN[C@@H]1C[C@H](N)[C@@H](O[C@H]2OC(C(C)N)=CC[C@H]2N)[C@H](O)[C@H]1O[C@H]1OC[C@](C)(O)[C@H](NC)[C@H]1O (stereo partly shown) [1-N-ethylverdamicin] | exhibit activity against gram negative organisms which are resistant to their 1-N-unsubstituted precursors | –
CN[C@@H]1[C@@H](O)[C@@H](O[C@@H]2[C@@H](O)[C@H](O[C@H]3O[C@H]([C@H](C)N)CC[C@H]3N)[C@@H](N)C[C@H]2N)OC[C@]1(C)O [gentamicin C2a] | – | MIC (Escherichia coli): 17.5 µg/mL (≈ 37.8 µM); activity relative to the gentamicin C complex (bacteria; as the free base, of the activity of the gentamicin C complex): about 74%; antibacterial spectrum in vitro (bacteria; compared with gentamicin C1, C1a and C2): substantially the same antibacterial spectrum in vitro as do gentamicin C1, C1a, and C2

Reference: patent publication US4002742A, “1-N-alkyl-4,6-di-(aminoglycosyl)-1,3-diaminocyclitols, methods for their manufacture, methods for their use as antibacterial agents, and compositions useful therefor” (priority 1974, dated 1977)
